Publication PMC4032265 (PLoS ONE, 2014)
Read-outs that look alike come from different tables or passages of the source.

How the values were obtained:
α2C adrenergic receptor = biological target: T1, α2C adrenergic receptor (Homo sapiens, UniProt P18825); experiment: PDSP radioligand binding, α2C; details: for Ki: full concentration-response curves, n = 3-6 unless noted; for inhibition at 10 µM: read-out: % inhibition at 10 µM
T1 sequence (P18825 1-462): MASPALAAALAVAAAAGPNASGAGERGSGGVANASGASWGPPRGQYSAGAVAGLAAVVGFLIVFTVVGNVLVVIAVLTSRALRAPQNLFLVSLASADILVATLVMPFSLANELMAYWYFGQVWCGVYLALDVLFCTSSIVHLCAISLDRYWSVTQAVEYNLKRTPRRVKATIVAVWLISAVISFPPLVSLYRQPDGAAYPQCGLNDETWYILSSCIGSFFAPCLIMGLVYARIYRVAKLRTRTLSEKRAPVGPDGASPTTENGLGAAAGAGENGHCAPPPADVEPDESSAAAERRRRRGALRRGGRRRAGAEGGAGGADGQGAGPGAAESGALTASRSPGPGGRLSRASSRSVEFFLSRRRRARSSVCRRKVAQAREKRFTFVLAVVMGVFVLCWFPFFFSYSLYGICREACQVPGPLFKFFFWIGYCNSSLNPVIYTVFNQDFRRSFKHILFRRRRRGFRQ

β3 adrenergic receptor = β3 adrenergic receptor (Homo sapiens, UniProt P13945); experiment: PDSP radioligand binding, β3; details: for Ki: full concentration-response curves, n = 3-6 unless noted; for inhibition at 10 µM: read-out: % inhibition at 10 µM
Sequence of β3 adrenergic receptor (P13945 whole entry): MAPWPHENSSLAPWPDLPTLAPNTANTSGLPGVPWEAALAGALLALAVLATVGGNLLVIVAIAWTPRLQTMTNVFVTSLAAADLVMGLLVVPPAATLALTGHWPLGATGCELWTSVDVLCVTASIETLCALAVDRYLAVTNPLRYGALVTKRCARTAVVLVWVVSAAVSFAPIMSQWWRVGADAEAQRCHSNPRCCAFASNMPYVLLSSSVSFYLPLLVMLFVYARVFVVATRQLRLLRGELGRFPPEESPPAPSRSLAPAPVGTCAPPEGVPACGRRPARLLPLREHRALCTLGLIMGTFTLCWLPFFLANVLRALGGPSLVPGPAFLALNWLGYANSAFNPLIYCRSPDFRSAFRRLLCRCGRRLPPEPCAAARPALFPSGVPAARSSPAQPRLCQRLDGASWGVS

[1] = biological target: 5HT2B serotonergic receptor (Homo sapiens, UniProt P41595); experiment: PDSP radioligand binding, 5HT2B; details: for Ki: full concentration-response curves, n = 3-6 unless noted; for inhibition at 10 µM: read-out: % inhibition at 10 µM
Sequence of 5HT2B serotonergic receptor (P41595 whole entry): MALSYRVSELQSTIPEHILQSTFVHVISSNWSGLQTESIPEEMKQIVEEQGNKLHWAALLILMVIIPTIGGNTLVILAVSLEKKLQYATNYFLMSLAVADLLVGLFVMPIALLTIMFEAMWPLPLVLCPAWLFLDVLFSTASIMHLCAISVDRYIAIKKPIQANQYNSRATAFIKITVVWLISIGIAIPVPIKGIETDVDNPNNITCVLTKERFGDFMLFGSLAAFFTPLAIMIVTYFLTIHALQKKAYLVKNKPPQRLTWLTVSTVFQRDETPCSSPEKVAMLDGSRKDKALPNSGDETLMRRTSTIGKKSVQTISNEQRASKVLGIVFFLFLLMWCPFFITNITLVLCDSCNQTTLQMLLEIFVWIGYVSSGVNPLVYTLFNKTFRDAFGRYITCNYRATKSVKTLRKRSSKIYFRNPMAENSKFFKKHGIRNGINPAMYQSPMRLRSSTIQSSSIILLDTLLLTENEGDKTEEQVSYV

5HT3 ion channels = biological target: T2, 5HT3 ion channels (Homo sapiens, UniProt P46098); experiment: PDSP radioligand binding, 5HT3 ion channel; details: read-out: % inhibition at 10 µM
T2 sequence (P46098 24-478): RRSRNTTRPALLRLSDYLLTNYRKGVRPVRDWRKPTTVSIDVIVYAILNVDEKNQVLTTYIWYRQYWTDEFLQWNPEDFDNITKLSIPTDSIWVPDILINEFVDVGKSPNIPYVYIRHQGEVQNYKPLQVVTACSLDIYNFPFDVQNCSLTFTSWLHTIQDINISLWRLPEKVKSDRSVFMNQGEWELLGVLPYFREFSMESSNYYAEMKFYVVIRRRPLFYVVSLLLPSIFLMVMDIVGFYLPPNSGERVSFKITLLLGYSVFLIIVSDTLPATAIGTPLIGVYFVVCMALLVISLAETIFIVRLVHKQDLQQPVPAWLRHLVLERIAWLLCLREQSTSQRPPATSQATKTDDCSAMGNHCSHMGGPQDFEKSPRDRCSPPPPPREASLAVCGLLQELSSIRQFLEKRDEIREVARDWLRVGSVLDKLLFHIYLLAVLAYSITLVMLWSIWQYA

α1A adrenergic receptor = biological target: T3, α1A adrenergic receptor (Homo sapiens, UniProt P35348); experiment: PDSP radioligand binding, α1A; details: read-out: % inhibition at 10 µM
T3 sequence (P35348 1-466): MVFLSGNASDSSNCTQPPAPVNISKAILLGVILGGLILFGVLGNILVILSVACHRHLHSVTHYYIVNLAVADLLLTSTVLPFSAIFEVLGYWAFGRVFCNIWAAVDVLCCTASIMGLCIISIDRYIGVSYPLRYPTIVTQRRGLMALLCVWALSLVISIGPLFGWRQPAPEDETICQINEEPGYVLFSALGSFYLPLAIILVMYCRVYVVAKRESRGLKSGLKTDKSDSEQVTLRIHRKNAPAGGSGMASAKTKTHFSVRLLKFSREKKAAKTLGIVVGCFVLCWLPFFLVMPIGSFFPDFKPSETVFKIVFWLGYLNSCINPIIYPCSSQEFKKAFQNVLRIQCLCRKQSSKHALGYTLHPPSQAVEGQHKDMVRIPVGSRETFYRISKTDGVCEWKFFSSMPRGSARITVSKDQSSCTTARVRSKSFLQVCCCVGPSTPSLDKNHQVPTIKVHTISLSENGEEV

β1 adrenergic receptor = β1 adrenergic receptor (Homo sapiens, UniProt P08588); experiment: PDSP radioligand binding, β1; details: read-out: % inhibition at 10 µM
Sequence of β1 adrenergic receptor (P08588 whole entry, species assumed): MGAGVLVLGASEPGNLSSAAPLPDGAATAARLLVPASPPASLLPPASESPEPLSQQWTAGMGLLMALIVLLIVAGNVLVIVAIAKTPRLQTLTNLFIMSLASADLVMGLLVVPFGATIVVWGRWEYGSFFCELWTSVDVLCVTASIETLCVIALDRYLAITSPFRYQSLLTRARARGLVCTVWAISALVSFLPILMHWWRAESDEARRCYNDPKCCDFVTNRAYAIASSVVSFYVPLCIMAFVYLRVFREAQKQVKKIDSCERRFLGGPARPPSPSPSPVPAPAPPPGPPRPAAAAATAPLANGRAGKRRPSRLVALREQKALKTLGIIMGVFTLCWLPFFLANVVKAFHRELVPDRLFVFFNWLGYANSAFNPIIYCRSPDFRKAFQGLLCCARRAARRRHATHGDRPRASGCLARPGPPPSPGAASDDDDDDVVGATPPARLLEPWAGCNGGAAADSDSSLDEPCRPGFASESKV

[2] = biological target: T4, M2 muscarinic acetylcholine receptor (Homo sapiens, UniProt P08172); experiment: PDSP radioligand binding, M2; details: read-out: % inhibition at 10 µM
T4 sequence (P08172 1-466): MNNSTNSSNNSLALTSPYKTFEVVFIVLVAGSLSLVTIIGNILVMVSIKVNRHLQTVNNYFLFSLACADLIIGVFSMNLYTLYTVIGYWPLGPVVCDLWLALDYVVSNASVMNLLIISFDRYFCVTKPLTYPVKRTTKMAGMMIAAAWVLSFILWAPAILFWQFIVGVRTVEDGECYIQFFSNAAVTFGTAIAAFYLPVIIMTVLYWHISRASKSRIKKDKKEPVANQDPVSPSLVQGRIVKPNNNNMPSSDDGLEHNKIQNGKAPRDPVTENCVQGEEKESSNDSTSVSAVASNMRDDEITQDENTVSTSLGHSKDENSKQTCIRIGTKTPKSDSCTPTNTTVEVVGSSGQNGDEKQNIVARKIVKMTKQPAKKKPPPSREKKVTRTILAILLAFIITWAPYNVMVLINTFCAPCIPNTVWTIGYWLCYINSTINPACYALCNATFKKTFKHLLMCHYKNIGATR

[3] = biological target: H1 histaminergic receptor (Homo sapiens, UniProt P35367); experiment: PDSP radioligand binding, H1; details: read-out: % inhibition at 10 µM
Sequence of H1 histaminergic receptor (P35367 whole entry): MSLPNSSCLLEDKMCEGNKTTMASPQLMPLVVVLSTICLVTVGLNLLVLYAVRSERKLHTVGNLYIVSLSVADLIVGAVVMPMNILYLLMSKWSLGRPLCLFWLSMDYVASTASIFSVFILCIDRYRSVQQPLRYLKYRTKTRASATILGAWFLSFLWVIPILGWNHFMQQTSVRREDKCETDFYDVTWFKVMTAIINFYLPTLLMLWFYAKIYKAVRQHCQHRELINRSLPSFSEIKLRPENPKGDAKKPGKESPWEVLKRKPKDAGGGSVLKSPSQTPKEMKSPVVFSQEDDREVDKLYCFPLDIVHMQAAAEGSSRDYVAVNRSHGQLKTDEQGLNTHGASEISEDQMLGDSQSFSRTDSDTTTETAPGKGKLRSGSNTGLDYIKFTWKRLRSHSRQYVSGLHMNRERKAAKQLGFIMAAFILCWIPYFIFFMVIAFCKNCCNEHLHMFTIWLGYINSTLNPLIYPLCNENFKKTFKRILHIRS

D3 dopaminergic receptor = D3 dopaminergic receptor (Homo sapiens, UniProt P35462); experiment: PDSP radioligand binding, D3; details: read-out: % inhibition at 10 µM
Sequence of D3 dopaminergic receptor (P35462 whole entry): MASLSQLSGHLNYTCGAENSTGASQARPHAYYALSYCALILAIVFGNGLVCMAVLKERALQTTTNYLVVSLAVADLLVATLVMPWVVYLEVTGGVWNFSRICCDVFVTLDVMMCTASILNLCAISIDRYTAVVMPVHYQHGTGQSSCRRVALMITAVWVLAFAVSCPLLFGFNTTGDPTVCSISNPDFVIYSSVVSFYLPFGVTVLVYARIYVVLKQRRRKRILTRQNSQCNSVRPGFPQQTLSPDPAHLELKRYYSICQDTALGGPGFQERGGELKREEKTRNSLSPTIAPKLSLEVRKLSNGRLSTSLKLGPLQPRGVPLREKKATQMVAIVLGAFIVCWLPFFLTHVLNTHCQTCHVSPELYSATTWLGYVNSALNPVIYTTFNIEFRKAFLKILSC

D4 dopaminergic receptor = biological target: T5, D4 dopaminergic receptor (Homo sapiens, UniProt P21917); experiment: PDSP radioligand binding, D4; details: read-out: % inhibition at 10 µM
T5 sequence (P21917 1-419): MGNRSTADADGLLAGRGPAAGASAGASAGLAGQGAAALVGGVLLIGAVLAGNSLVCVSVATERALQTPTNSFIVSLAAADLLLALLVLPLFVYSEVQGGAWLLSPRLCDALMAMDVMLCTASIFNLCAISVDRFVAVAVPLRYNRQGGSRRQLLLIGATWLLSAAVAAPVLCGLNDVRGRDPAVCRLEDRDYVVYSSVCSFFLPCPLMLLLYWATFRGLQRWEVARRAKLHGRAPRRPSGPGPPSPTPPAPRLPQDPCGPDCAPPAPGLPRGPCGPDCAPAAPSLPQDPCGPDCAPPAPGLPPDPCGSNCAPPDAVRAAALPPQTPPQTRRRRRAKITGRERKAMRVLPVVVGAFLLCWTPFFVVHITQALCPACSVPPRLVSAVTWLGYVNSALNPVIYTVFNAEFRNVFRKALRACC

[4] = biological target: 5HT1B serotonergic receptor (Homo sapiens, UniProt P28222); experiment: PDSP radioligand binding, 5HT1B; details: read-out: % inhibition at 10 µM
Sequence of 5HT1B serotonergic receptor (P28222 whole entry): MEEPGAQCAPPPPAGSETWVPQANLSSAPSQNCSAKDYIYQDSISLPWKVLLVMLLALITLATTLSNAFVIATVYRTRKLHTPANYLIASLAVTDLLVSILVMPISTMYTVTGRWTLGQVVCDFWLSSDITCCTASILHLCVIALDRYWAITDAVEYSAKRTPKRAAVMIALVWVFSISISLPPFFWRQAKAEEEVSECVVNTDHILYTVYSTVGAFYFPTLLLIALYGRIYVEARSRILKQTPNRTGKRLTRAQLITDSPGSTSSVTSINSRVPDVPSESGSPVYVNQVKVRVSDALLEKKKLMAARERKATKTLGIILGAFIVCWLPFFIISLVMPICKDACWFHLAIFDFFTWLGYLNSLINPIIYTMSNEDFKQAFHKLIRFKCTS

[5] = biological target: 5HT1D serotonergic receptor (Homo sapiens, UniProt P28221); experiment: PDSP radioligand binding, 5HT1D; details: read-out: % inhibition at 10 µM
Sequence of 5HT1D serotonergic receptor (P28221 whole entry): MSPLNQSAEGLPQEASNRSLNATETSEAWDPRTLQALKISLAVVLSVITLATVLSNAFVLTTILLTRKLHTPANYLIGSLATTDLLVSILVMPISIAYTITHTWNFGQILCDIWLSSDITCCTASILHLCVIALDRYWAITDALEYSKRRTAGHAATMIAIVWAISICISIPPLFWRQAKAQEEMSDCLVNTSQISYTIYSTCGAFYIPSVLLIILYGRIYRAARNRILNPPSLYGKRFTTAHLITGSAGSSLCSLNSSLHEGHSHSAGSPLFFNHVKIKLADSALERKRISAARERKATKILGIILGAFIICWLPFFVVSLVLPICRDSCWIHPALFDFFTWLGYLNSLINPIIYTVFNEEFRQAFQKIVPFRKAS

µ opioid receptor = µ opioid receptor (Homo sapiens, UniProt P35372); experiment: PDSP radioligand binding, µ opioid; details: read-out: % inhibition at 10 µM
Sequence of µ opioid receptor (P35372 whole entry): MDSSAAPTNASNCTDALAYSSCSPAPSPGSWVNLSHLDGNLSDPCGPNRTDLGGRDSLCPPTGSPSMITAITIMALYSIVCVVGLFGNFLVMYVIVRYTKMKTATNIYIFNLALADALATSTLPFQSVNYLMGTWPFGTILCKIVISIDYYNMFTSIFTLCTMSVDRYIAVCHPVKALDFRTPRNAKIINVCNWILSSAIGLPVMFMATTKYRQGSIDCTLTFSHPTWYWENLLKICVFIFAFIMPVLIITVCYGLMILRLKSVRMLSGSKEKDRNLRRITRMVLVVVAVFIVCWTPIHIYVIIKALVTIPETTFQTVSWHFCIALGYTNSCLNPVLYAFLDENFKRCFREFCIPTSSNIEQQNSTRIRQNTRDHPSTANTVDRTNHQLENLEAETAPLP

GABAA receptor = experiment: PDSP radioligand binding, GABAA; details: single concentration 10 µM

Compound | Ki (α2C adrenergic receptor) [nM] | Ki (β3 adrenergic receptor) [nM] | Ki [1] [nM] | % inhibition at 10 µM (GABAA receptor) [%] | inhibition at 10 µM (α2C adrenergic receptor; single concentration 10 µM) [%] | inhibition at 10 µM (β3 adrenergic receptor; single concentration 10 µM) [%] | inhibition at 10 µM ([1]; single concentration 10 µM) [%] | inhibition at 10 µM (5HT3 ion channels; single concentration 10 µM) [%] | inhibition at 10 µM (α1A adrenergic receptor; single concentration 10 µM) [%] | inhibition at 10 µM (β1 adrenergic receptor; single concentration 10 µM) [%] | inhibition at 10 µM ([2]; single concentration 10 µM) [%] | inhibition at 10 µM ([3]; single concentration 10 µM) [%] | inhibition at 10 µM (D3 dopaminergic receptor; single concentration 10 µM) [%] | inhibition at 10 µM (D4 dopaminergic receptor; single concentration 10 µM) [%] | inhibition at 10 µM ([4]; single concentration 10 µM) [%] | inhibition at 10 µM ([5]; single concentration 10 µM) [%] | inhibition at 10 µM (µ opioid receptor; single concentration 10 µM) [%] | further results
CNC(=O)[C@@]12C[C@@H]1[C@@H](n1cnc3c(NCc4cccc(Cl)c4)nc(C#Cc4ccc(F)c(F)c4)nc31)[C@H](O)[C@@H]2O [Compound 1] | 2040 ± 950 | 1450 ± 510 | 2580 ± 220 | 0 | – | – | – | – | – | – | – | – | – | – | – | – | – | inhibition at 10 µM (α2C adrenergic receptor): 63%; inhibition at 10 µM (β3 adrenergic receptor): 74%; inhibition at 10 µM [1]: 34%; inhibition at 10 µM (5HT3 ion channels): 3%; inhibition at 10 µM (α1A adrenergic receptor): 10%; inhibition at 10 µM (β1 adrenergic receptor): 0%; inhibition at 10 µM [2]: 22%; inhibition at 10 µM [3]: 0%; inhibition at 10 µM (D3 dopaminergic receptor): 2%; inhibition at 10 µM (D4 dopaminergic receptor): 0%; inhibition at 10 µM [4]: 0%; inhibition at 10 µM [5]: 0%; inhibition at 10 µM (µ opioid receptor): 11%
CNC(=O)[C@@]12C[C@@H]1[C@@H](n1cnc3c(NCc4cccc(Cl)c4)nc(C#Cc4ccc(F)cc4)nc31)[C@H](O)[C@@H]2O [Compound 2] | 3640 ± 1370 | 1560 ± 560 | 2130 ± 270 | 0 | 48 | 67 | 56 | 26 | 7 | 0 | 0 | 0 | 4 | 0 | 0 | 21 | 7 | –
CNC(=O)[C@@]12C[C@@H]1[C@@H](n1cnc3c(NCc4cccc(Cl)c4)nc(C#Cc4ccccc4Cl)nc31)[C@H](O)[C@@H]2O [Compound 3] | 1810 ± 250 | 1170 ± 190 | 3650 ± 1050 | 0 | 57 | 57 | 55 | 50 | 16 | 2 | 0 | 21 | 7 | 1 | 0 | 10 | 23 | –
CNC(=O)[C@@]12C[C@@H]1[C@@H](n1cnc3c(NCc4cccc(Cl)c4)nc(Cl)nc31)[C@H](O)[C@@H]2O [Compound 4] | – | – | 75 ± 7 | 0 | 11 | 0 | 95 | 5 | 3 | 0 | 14 | 6 | 22 | 6 | 23 | 31 | 1 | –
